Test results from ChEMBL document CHEMBL6071145, “A novel theranostic strategy for myocardial infarction through neutralization of endogenous SO2 using an endoplasmic reticulum-targeted fluorescent probe” (Eur J Med Chem, 2024).
Values belong to the compound of their own block, whether it stands above or below them. Calls of active or inactive are those of the source. No cut-off for these calls is given here.

What was measured:
H9c2 [1] = experiment: Cytotoxicity against rat H9c2 cells at 80 uM incubated for 48 hrs by CCK-8 assay; type: toxicity, cell-based; settings: h9c2, 48 h
[2] = Drug uptake in male C57BL mouse model assessed as increase in fluorescence signal in apex cordis at 25 mg/kg; type: ADME, organism-based, Apex of heart; settings: in vivo
H9c2 [3] = experiment: Cardioprotective activity against H2O2 induced rat H9c2 cells preincubated with compound for 1 hr followed by H2O2 addition for 0.5 hr by confocal microscopic analysis; type: functional, cell-based; settings: time 90.0 min
[4] = Drug localization in golgi body of human A549 cells assessed as colocalization incubated for 20 mins by Golgi-Tracker Green staining based analysis; type: ADME, subcellular; settings: a549, 20 min
[5] = Drug uptake in human A549 cells assessed as increase in green channel at 5 uM treated with SO2 for 1 hr by confocal microscopic analysis; type: ADME, cell-based; settings: a549, 1 h
[6] = Drug localization in nucleus of human A549 cells assessed as colocalization incubated for 20 mins by […] staining based analysis; type: ADME, subcellular; settings: a549, 20 min
[7] = Drug uptake in human A549 cells assessed as decrease in red channel at 5 uM treated with SO2 incubated for 1 hr by confocal microscopic analysis; type: ADME, cell-based; settings: a549, 1 h
Mus musculus [8] = species on record: Mus musculus; experiment: Cardioprotective activity against myocardial infarction male C57BL mouse assessed as decrease in tissue structure by HE staining based analysis; type: functional, organism-based
A549 = experiment: Cytotoxicity against human A549 cells assessed as reduction in cell viability at 100 uM incubated for 48 hrs by CCK-8 assay; type: functional, cell-based
H9c2 [9] = experiment: Cardioprotective activity against H2O2 induced rat H9c2 cells assessed as decrease in red fluorescence at 5 to 50 uM preincubated with compound for 1 hr followed by H2O2 addition for 0.5 hr by confocal microscopic analysis; type: functional, cell-based; settings: dose 5-50 µM, time 90.0 min
[10] = Drug localization in endoplasmic reticulum of human A549 cells assessed as colocalization incubated for 20 mins by ER-Tracker Green staining based anlaysis; type: ADME, subcellular; settings: a549, 20 min
[11] = Drug uptake in human A549 cells assessed as increase in green channel at 5 to 100 uM pretreated with NaHSO3 for 1 hr followed by SO2 for 1 hr by confocal microscopic analysis; type: ADME, cell-based; settings: a549, 2 h, dose 5-100 µM
[12] = Drug uptake in human A549 cells assessed as increase in fluorescence ratio at 5 uM treated with SO2 for 1 hr by confocal microscopic analysis; type: ADME, cell-based; settings: a549, 1 h
Mus musculus [13] = species on record: Mus musculus; experiment: Cardioprotective activity against myocardial infarction male C57BL mouse assessed as […] in apoptosis by TUNEL staining based analysis; type: functional, organism-based
[14] = Photostability of compound in human A549 cells at 5 uM measured within 3 min in the presence of light-irradition; type: ADME, cell-based; settings: a549, 0.05 h
[15] = Drug localization in mitochondria of human A549 cells assessed as colocalization incubated for 20 mins by MitoTracker Green staining based analysis; type: ADME; settings: a549, 20 min
Mus musculus [16] = species on record: Mus musculus; experiment: Cardioprotective activity against myocardial infarction male C57BL mouse assessed as increase in BCL-2 expression in peri-ischemic region by Western blot analysis; type: functional, organism-based
H9c2 [17] = experiment: Cardioprotective activity against H2O2 induced rat H9c2 cells assessed as production of BCL-2 protein at 0 to 50 uM preincubated with compound for 1 hr followed by H2O2 addition for 0.5 hr by Western blot analysis; type: functional, cell-based; settings: dose 0-50 µM, time 90.0 min
H9c2 [18] = experiment: Cardioprotective activity against H2O2 induced rat H9C2 cells assessed as increase in green fluorescence at 5 to 50 uM preincubated with compound for 1 hr followed by H2O2 addition for 0.5 hr by confocal microscopic analysis; type: functional, cell-based; settings: dose 5-50 µM, time 90.0 min
L02 = experiment: Cytotoxicity against human LO2 cells assessed as reduction in cell viability at 100 uM incubated for 48 hrs by CCK-8 assay; type: toxicity, cell-based; settings: l02, 48 h
[19] = Drug localization in lysosomes of human A549 cells assessed as colocalization incubated for 20 mins by lysoTracker Green DND-26 staining based analysis; type: ADME, subcellular, Lysosome; settings: a549, 20 min
[20] = Drug uptake in human A549 cells assessed as increase in fluorescence ratio at 5 uM pretreated with NaHSO3 for 1 hr followed by SO2 for 1 hr by confocal microscopic analysis; type: ADME, cell-based; settings: a549, 2 h
[21] = Drug uptake in human A549 cells assessed as decrease in red channel at 5 to 100 uM pretreated with NaHSO3 for 1 hr followed by SO2 for 1 hr by confocal microscopic analysis; type: ADME, cell-based; settings: a549, 2 h, dose 5-100 µM
Mus musculus [22] = species on record: Mus musculus; experiment: Cardioprotective activity against myocardial infarction male C57BL mouse assessed as decrease in cardiac fibrosis by Masson staining based analysis; type: functional, organism-based
Mus musculus [23] = species on record: Mus musculus; experiment: Cardioprotective activity against myocardial infarction male C57BL mouse assessed as increase in BCL-2 expression in ischemic region by Western blot analysis; type: functional, organism-based

Drug uptake [2]: Active
SMILES: O=S(=O)([O-])CCCC[n+]1c(CC(c2ccc(N(c3ccccc3)c3ccccc3)cc2)S(=O)(=O)[O-])sc2ccccc21.[Na+] (stereo unspecified)
Activity (H9c2 [1]): Non-Toxic | Activity (H9c2 [3]): inactive

Drug uptake [4]: Not Active | Drug uptake [5]: Active | Drug uptake [6]: Not Active | Drug uptake [7]: Active | Drug uptake [10]: Active | Drug uptake [11]: Active | Drug uptake [12]: Active | Stability [14]: Stable | Drug uptake [15]: Not Active | Drug uptake [19]: Not Active | Drug uptake [20]: Active | Drug uptake [21]: Active
SMILES: O=S(=O)([O-])CCCC[n+]1c(/C=C/c2ccc(N(c3ccccc3)c3ccccc3)cc2)sc2ccccc21
Activity (Mus musculus [8]): Active | Activity (A549): Active | Activity (H9c2 [1]): Non-Toxic | Activity (H9c2 [9]): Active | Activity (Mus musculus [13]): Active | Activity (Mus musculus [16]): Active | Activity (H9c2 [17]): Active | Activity (H9c2 [18]): Active | Activity (L02): Non-Toxic | Activity (Mus musculus [22]): Active | Activity (Mus musculus [23]): Active
